# Laboratory results as given in patent US9555014B2, “Therapeutic regimens” (Radius Health, Inc., priority 2010, dated 2017).
# Legend:
# [1] = tested on: mammary carcinoma cells (MCF-7); experiment: Estrogen-dependent proliferation of MCF-7 cells (preclinical data); assay type: cell-based
# Text: The results of a phase 2a clinical study assessing the effects of the selective estrogen receptor modulator (SERM) (R)-6-(2-(ethyl(4-(2-(ethylamino)ethyl)benzyl)amino)-4-methoxyphenyl)-5,6,7,8-tetrahydronaphthalen-2-ol on women suffering from hot flushes are reported herein.
# [2] = tested on: postmenopausal women with frequent, moderate to severe vasomotor symptoms (hot flashes); experiment: Phase 2a study: hot flash frequency, severity and composite score; assay type: in vivo, human (postmenopausal women); conditions: 10 mg
# Text: A phase 2a study was undertaken to assess the effect of (R)-6-(2-(ethyl(4-(2-(ethylamino)ethyl)benzyl)amino)-4-methoxyphenyl)-5,6,7,8-tetrahydronaphthalen-2-ol dihydrochloride (referred to as “drug” in tables below) to alleviate hot flashes in postmenopausal women. The study design and objectives are detailed below.
# This is a randomized, placebo-controlled, double-blind, parallel-group, Phase 2, multi-center, dose-finding study to evaluate the effects of (R)-6-(2-(ethyl(4-(2-(ethylamino)ethyl)benzyl)amino)-4-methoxyphenyl)-5,6,7,8-tetrahydronaphthalen-2-ol dihydrochloride in the treatment of vasomotor symptoms in postmenopausal women.
# A total of 100 eligible patients will be randomized to receive one of 5 blinded treatment regimens. (R)-6-(2-(ethyl(4-(2-(ethylamino)ethyl)benzyl)amino)-4-methoxyphenyl)-5,6,7,8-tetrahydronaphthalen-2-ol dihydrochloride at doses 0, 10, 25, 50 or 100 mg will be dosed for 28-days.
# Patients will document in real time hot flash frequency and severity according to a predetermined scale, in the provided electronic or paper Study Diary. Study Diary entries of hot flash frequency and severity and associated symptoms will be reviewed at each study visit. Serum markers of estrogen effect will be measured at specific study visits while on treatment.
# The efficacy endpoints assessed are: • Change in frequency of hot flashes over time • Change in severity of hot flashes over time; • Change in composite score of hot flashes over time (frequency×severity)
# (R)-6-(2-(ethyl(4-(2-(ethylamino)ethyl)benzyl)amino)-4-methoxyphenyl)-5,6,7,8-tetrahydronaphthalen-2-ol dihydrochloride was provided by sponsor in capsule form for oral administration. All doses (0, 10, 25, 50 and 100 mg) were provided as identical presentations. Each patient was provided with 2 containers of 28-capsules each at the start of treatment and took one capsule from each container every day for 28-days. Placebo contained the same excipients as active medication, but without (R)-6-(2-(ethyl(4-(2-(ethylamino)ethyl)benzyl)amino)-4-methoxyphenyl)-5,6,7,8-tetrahydronaphthalen-2-ol dihydrochloride. The patients were instructed to take the capsules orally in the fasted state (morning).
# Changes in the efficacy endpoints of frequency, severity, and composite score of hot flashes over time; associated hot flash symptoms (palpitations, insomnia, joint aches, and headaches), PD markers of estrogen effect (FSH, LH, and lipid profile), drug levels, and MRS were to be summarized using descriptive statistics. Frequency, severity, and composite score of hot flashes over time were to be analyzed using repeated measures analysis of variance (ANOVA) with factors for treatment (treatment groups), time (study day) and their interaction. A linear trend test for treatment groups (placebo, and 10, 25, 50, 100 mg doses of drug) and for study day as well as any potential interaction between the two was to be included as part of the analyses by including both dose and time as continuous variables in the ANOVA model. Pair-wise comparisons of change from baseline were to be tested between the placebo group and each drug dose group for each timepoint; the mean difference together with a 95% confidence interval of the difference was to be presented for placebo compared with each active treatment group. Nominal p-values at Week 4 were to be presented. In addition, graphical presentations of mean (±standard error of the mean) and percent group responses over time together with repeated measures ANOVA to assess potential trend in responses over time in each dose group were to be presented. For the associated vasomotor symptoms (palpitations, insomnia, joint aches, and headaches collected in the patient diaries), patient and event frequencies were to be summarized by treatment week and treatment group.
# Hot flashes were also scored according to their severity with a mild hot flash scored a “1”, a moderate hot flash scored a “2” and a severe hot flash scored a “3”. […]
compound,measurement,setting,value
"CCNCCc1ccc(CN(CC)c2cc(OC)ccc2[C@@H]2CCc3cc(O)ccc3C2)cc1 [compound of formula I, (R)-6-(2-(ethyl(4-(2-(ethylamino)ethyl)-benzyl)amino)-4-methoxyphenyl)-5,6,7,8-tetrahydronaphthalen-2-ol]",antagonism of estradiol stimulation on MCF-7 cells,[1],potent antagonist of estradiol stimulation
same,stimulation of estrogen-dependent proliferation of MCF-7 cells (agonism),[1]; compared with prototypical estrogen agonists (e.g. estradiol),does not stimulate estrogen-dependent proliferation
same,hot flush frequency reduction,[2]; cohort with 2 hour postdose plasma concentration 0.43 ng/mL to 0.53 ng/mL,−75%
same,hot flush frequency reduction,"[2]; higher concentration cohort, 2 hour postdose plasma concentration 0.66 ng/mL to 1.34 ng/mL",−77%
